Test results from US9018200B2, “Substituted piperidinyl compounds useful as GPR119 agonists” (Merck Sharp & Dohme Corp., priority 2011, dated 2015).

Target: T1, human GPR119 (Homo sapiens, UniProt Q8TDV5)
T1 sequence (Q8TDV5 1-308 limits assumed): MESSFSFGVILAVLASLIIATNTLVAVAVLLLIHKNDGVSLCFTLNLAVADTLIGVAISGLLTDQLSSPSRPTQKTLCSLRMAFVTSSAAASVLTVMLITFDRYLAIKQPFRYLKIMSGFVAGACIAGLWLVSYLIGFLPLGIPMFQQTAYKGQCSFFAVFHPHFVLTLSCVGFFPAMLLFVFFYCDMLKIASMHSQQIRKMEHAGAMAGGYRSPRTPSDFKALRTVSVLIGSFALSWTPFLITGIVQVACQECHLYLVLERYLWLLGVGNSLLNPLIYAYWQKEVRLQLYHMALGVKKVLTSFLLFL
Assay: Measurement of GPR119 signaling (cAMP assay) in HEK 293 cells stably transfected with human GPR119
Format: cell-based
Details: not given
From the text: Measurement of GPR119 Signaling (Cyclic AMP (cAMP) Assay)
Human embryonic kidney (HEK) 293 cell lines stably transfected with human GPR119 were maintained in Dulbecco's Modified Eagle Medium (DMEM) containing fetal bovine serum (FBS), penicillin-streptomycin, HEPES buffer (4-(2-hydroxyethyl)-1-piperazineethane sulfonic acid), and hygromycin. For the cAMP assay, the transfected cells were harvested using a non-enzymatic cell dissociation solution (GIBCO 2672), pelleted and resuspended in stimulation buffer (DMEM, 25 mM HEPES, 0.1% bovine serum albumin (BSA), pH 7.4 in the presence of 100 μM phosphodiesterase inhibitors). The adenylate cyclase assay was constructed following the LANCE™ cAMP Kit (Perkin Elmer, AD0264) instructions.
Briefly, cells with Alexa Fluor® 647-anti cAMP antibody were incubated with 10 point series diluted test article in stimulation buffer with a final concentration of 2.5% DMSO for 45 minutes. The reaction was stopped by incubating with the supplied detection buffer containing the europium chelate of the Eu-SA/Biotin-cAMP tracer for 3 hours. The assay was performed in duplicate in a 384 well plate for duplicate plates and fluorescence was measured at 665 nm. Basal activity was determined using a DMSO control and maximum response was defined as cAMP stimulation produced by an internal agonist control. Standard cAMP concentrations were assayed concurrently for conversion of fluorescence signal to cAMP level. The data was analyzed using 4-parameter curve fit in Microsoft Excel. […]

| EC50 | SMILES |
| --- | --- |
| 28.7 nM | COC(=O)c1c(F)cc(OCC[C@@H]2C[C@@H]2C2CCN(CC(F)(F)F)CC2)cc1F [Example 1, Methyl 2,6-difluoro-4-(2-{(1S,2R)-2-[1-(2,2,2-trifluoroethyl)piperidin-4-yl]cyclopropyl}ethoxy)benzoate] |
| 5.28 nM | O=C(NC1CC1)c1c(F)cc(OCC[C@@H]2C[C@@H]2C2CCN(CC(F)(F)F)CC2)cc1F [Example 3, N-Cyclopropyl-2,6-difluoro-4-(2-{(1S,2R)-2-[1-(2,2,2-trifluoroethyl)piperidin-4-yl]cyclopropyl}ethoxy)benzamide] |
| 176 nM | CS(=O)(=O)c1ccc(OCC[C@@H]2C[C@@H]2C2CCN(CC(F)(F)F)CC2)cc1 [Example 4, 4-[(1R,2S)-2-{2-[4-(Methylsulfonyl)phenoxy]ethyl}cyclopropyl]-1-(2,2,2-trifluoroethyl)piperidine] |

Same assay, conditions: table of Examples 5-56

| SMILES | EC50 |
| --- | --- |
| CCC(F)(F)CN1CCC([C@H]2C[C@H]2CCOc2cc(F)c(C(=O)NC3CC3)c(F)c2)CC1 [Example 5] | 0.43 nM |
| O=C(NC1CC1)c1ccc(OCC[C@@H]2C[C@@H]2C2CCN(CC(F)(F)C(F)(F)F)CC2)cc1F [Example 6] | 0.52 nM |
| CCC(F)(F)CN1CCC([C@H]2C[C@H]2CCOc2cc(F)c(C(=O)NC3(C)CC3)c(F)c2)CC1 [Example 7] | 1.2 nM |
| O=C(NCC1CCCO1)c1ccc(OCC[C@@H]2C[C@@H]2C2CCN(CC(F)(F)C(F)(F)F)CC2)cc1F (some centres unmarked) [Example 8] | 1.6 nM |
| CC(C)(CO)NC(=O)c1ccc(OCC[C@@H]2C[C@@H]2C2CCN(CC(F)(F)C(F)(F)F)CC2)cc1F [Example 9] | 2.34 nM |
| O=C(NCC1(O)CC1)c1ccc(OCC[C@@H]2C[C@@H]2C2CCN(CC(F)(F)C(F)(F)F)CC2)cc1F [Example 10] | 3.02 nM |
| O=C(NC1CC1)c1ccc(OCC[C@@H]2C[C@@H]2C2CCN(CC(F)(F)C(F)F)CC2)cc1F [Example 11] | 3.16 nM |
| O=C(NCc1cnoc1)c1ccc(OCC[C@@H]2C[C@@H]2C2CCN(CC(F)(F)C(F)(F)F)CC2)cc1F [Example 12] | 3.69 nM |
| CC(C)(C)NC(=O)c1ccc(OCC[C@@H]2C[C@@H]2C2CCN(CC(F)(F)C(F)(F)F)CC2)cc1F [Example 13] | 3.83 nM |
| CS(=O)(=O)c1ccc(OCC[C@@H]2C[C@@H]2C2CCN(CC(F)(F)C(F)(F)F)CC2)cc1F [Example 14] | 4.35 nM |
| O=C(NC1CC1)c1c(F)cc(OCC[C@@H]2C[C@@H]2C2CCN(CC(F)(F)F)CC2)cc1F [Example 15] | 5.28 nM |
| CCC(F)(F)CN1CCC([C@H]2C[C@H]2CCOc2ccc(C(=O)NC3CC3)c(F)c2)CC1 [Example 16] | 5.34 nM |
| O=C(NCCO)c1ccc(OCC[C@@H]2C[C@@H]2C2CCN(CC(F)(F)C(F)(F)F)CC2)cc1F [Example 17] | 5.38 nM |
| O=C(NC1CC1(F)F)c1c(F)cc(OCC[C@@H]2C[C@@H]2C2CCN(CC(F)(F)F)CC2)cc1F (some centres unmarked) [Example 18] | 5.87 nM |
| CC(C)(C)NC(=O)c1c(F)cc(OCC[C@@H]2C[C@@H]2C2CCN(CC(F)(F)F)CC2)cc1F [Example 19] | 12.2 nM |
| O=C(c1ccc(OCC[C@@H]2C[C@@H]2C2CCN(CC(F)(F)C(F)(F)F)CC2)cc1F)N1CCC(O)C1 (some centres unmarked) [Example 20] | 13.4 nM |
| CS(=O)(=O)c1ccc(OCC[C@@H]2C[C@@H]2C2CCN(CC(F)(F)C(F)(F)F)CC2)nc1 [Example 21] | 14 nM |
| O=C(NC1CC1)c1ccc(OCC[C@@H]2C[C@@H]2C2CCN(CC(F)(F)F)CC2)cc1F [Example 22] | 16.7 nM |
| CC(C)(O)C1CCCN(C(=O)c2ccc(OCC[C@@H]3C[C@@H]3C3CCN(CC(F)(F)C(F)(F)F)CC3)cc2F)C1 (some centres unmarked) [Example 23] | 18.4 nM |
| O=C(NC1CC(F)(F)C1)c1c(F)cc(OCC[C@@H]2C[C@@H]2C2CCN(CC(F)(F)F)CC2)cc1F [Example 24] | 20.3 nM |

Continued, values first:

| EC50 | SMILES |
| --- | --- |
| 22.5 nM | CCC(F)(F)CN1CCC([C@H]2C[C@H]2CCOc2ccc(S(C)(=O)=O)c(F)c2)CC1 [Example 25] |
| 23.6 nM | CS(=O)(=O)c1ccc(OCC[C@@H]2C[C@@H]2C2CCN(CC(F)(F)C(F)(F)F)CC2)cc1 [Example 26] |
| 27.8 nM | CS(=O)(=O)c1ccc(OCC[C@@H]2C[C@@H]2C2CCN(CC(F)(F)F)CC2)nc1 [Example 27] |
| 35.3 nM | CCC(F)(F)CN1CCC([C@H]2C[C@H]2CCOc2cc(F)c(S(C)(=O)=O)c(F)c2)CC1 [Example 28] |
| 45.8 nM | O=C(c1c(F)cc(OCC[C@@H]2C[C@@H]2C2CCN(CC(F)(F)F)CC2)cc1F)N1CC(F)(F)C1 [Example 31] |
| 68 nM | COCCNC(=O)c1c(F)cc(OCC[C@@H]2C[C@@H]2C2CCN(CC(F)(F)F)CC2)cc1F [Example 33] |
| 77.3 nM | O=C(NC1CCOCC1)c1c(F)cc(OCC[C@@H]2C[C@@H]2C2CCN(CC(F)(F)F)CC2)cc1F [Example 34] |
| 126 nM | Cc1nc(C#N)cc(OCC[C@@H]2C[C@@H]2C2CCN(CC(F)(F)F)CC2)n1 [Example 35] |
| 176 nM | CS(=O)(=O)c1ccc(OCC[C@@H]2C[C@@H]2C2CCN(CC(F)(F)F)CC2)cc1 [Example 36] |
| 199 nM | Cc1cc(OCC[C@@H]2C[C@@H]2C2CCN(CC(F)(F)F)CC2)cc(C#N)n1 [Example 37] |
| 257 nM | O=C(c1ccc(OCC[C@@H]2C[C@@H]2C2CCN(CC(F)(F)F)CC2)cc1F)N1CCC(O)C1 (some centres unmarked) [Example 38] |
| 270 nM | O=C1Cc2cc(OCC[C@@H]3C[C@@H]3C3CCN(CC(F)(F)F)CC3)ccc2N1 [Example 39] |
| 776 nM | CC(F)(F)CN1CCC([C@H]2C[C@H]2CCOc2ccc(S(C)(=O)=O)cn2)CC1 [Example 40] |
| 59.3 nM | O=C(NC1CC1)c1ccc(OCC[C@@H]2C[C@@H]2C2CCN(CCC(F)(F)F)CC2)cc1F [Example 41] |
| 2.34 nM | CC(C)(CN1CCC([C@H]2C[C@H]2CCOc2ccc(C(=O)NC3CC3)c(F)c2)CC1)C(F)(F)F [Example 42] |
| 7.13 nM | O=C1Cc2cc(OCC[C@@H]3C[C@@H]3C3CCN(CC(F)(F)C(F)(F)F)CC3)cc(F)c2N1 [Example 43] |
| 51.6 nM | CC(=O)c1ccc(OCC[C@@H]2C[C@@H]2C2CCN(CC(F)(F)C(F)(F)F)CC2)cc1F [Example 44] |
| 1.65 nM | CCC(F)(F)CN1CCC([C@H]2C[C@H]2CCOc2cc(F)c(C(=O)C3CC3)c(F)c2)CC1 [Example 45] |
| 7.31 nM | Cc1nnc(-c2ccc(OCC[C@@H]3C[C@@H]3C3CCN(CC(F)(F)C(F)(F)F)CC3)cc2F)o1 [Example 46] |
| 24.2 nM | FC(F)(F)C(F)(F)CN1CCC([C@H]2C[C@H]2CCOc2ccc(-n3cnnn3)cc2)CC1 [Example 49] |
| 26.9 nM | FC(F)(F)C(F)(F)CN1CCC([C@H]2C[C@H]2CCOc2ccc(-n3cncn3)cc2)CC1 [Example 50] |
| 28.7 nM | COC(=O)c1c(F)cc(OCC[C@@H]2C[C@@H]2C2CCN(CC(F)(F)F)CC2)cc1F [Example 51] |
| 40.8 nM | Cc1nc(-c2ccc(OCC[C@@H]3C[C@@H]3C3CCN(CC(F)(F)C(F)(F)F)CC3)cc2)no1 [Example 52] |
| 57.9 nM | CC(C)(C)NC(=O)c1ccc(OCC[C@@H]2C[C@@H]2C2CCN(CC(F)(F)F)CC2)cc1F [Example 53] |
| 59.5 nM | Cc1nnc(-c2ccc(OCC[C@@H]3C[C@@H]3C3CCN(CC(F)(F)F)CC3)cc2F)o1 [Example 54] |
| 568 nM | CS(=O)(=O)c1c(F)cc(COC[C@@H]2C[C@@H]2C2CCN(CC(F)(F)F)CC2)cc1F [Example 55] |
| 13.4 nM | C=CCCC(=O)c1ccc(OCC[C@@H]2C[C@@H]2C2CCN(CC(F)(F)C(F)(F)F)CC2)cc1F [Example 56] |
